Reference: patent publication US20240336615A1, “CYCLOPROPYL-(HETERO)ARYL-SUBSTITUTED ETHYL-SULFOXIME-PYRIDINE DERIVATIVES” (Boehringer Ingelheim Vetmedica GmbH, priority 2023, published 2024)

Legend:
[1] = test system: adult R. sanguineus ticks; test: Contact activity against adult Rhipicephalus sanguineus (Example 5); conditions: coated vials, 48 hours post-treatment, read-out: EC50 (contact activity, percentage mortality)
Protocol: Compounds of formulae (I), (Ia) and/or (Ib) formulated in 100% DMSO are diluted in a solution containing acetone and Triton X-100 (0.02%). The resulting formulation is used to coat the inner walls of glass scintillation vials and the filter paper covering the cap of the vial. Once dried, ten adult R. sanguineus ticks are added to the vials. The vials are incubated at 24° C., 95% relative humidity, and 12 hours of light/12 hours of dark until evaluation. Ticks are visually evaluated for mortality at 48 hours post-treatment. Compound efficacy at a given dose is expressed as percentage mortality. A dose response series is implemented to determine EC50 values.

adult C. felis fleas [2] = test: Ingestion activity against adult Ctenocephalides felis, membrane feeding, motility (Example 6); conditions: 48 h, bovine blood via artificial membrane, 48h post treatment, read-out: EC50 (ingestion activity, % motility reduction)
Protocol: Compounds of formulae (I), (Ia) and/or (Ib) dissolved in 100% DMSO are added to bovine blood and offered via an artificial membrane feeding system to adult C. felis fleas. The motility of fleas is then visually inspected 48h post treatment. Efficacy is expressed in % motility reduction compared to controls containing blood treated with DMSO only. A dose response series is implemented to determine EC50 values.

Plutella xylostella = test: Insecticidal test on Plutella xylostella (Example 15); format: in vivo; conditions: 144 h, 500 ppm, Chinese cabbage seedling dip, 6 days after dip treatment, read-out: activity level (corrected mortality rate)
Protocol: The compounds of formula (I), (Ia) and/or (Ib) of the present invention or salts thereof are separately dispersed in water and diluted to 500 ppm and 50 ppm. Ten adults of Plutella xylostella are released onto Chinese cabbage seedlings and allowed to lay eggs thereon. 2 days after the release of the adults, the seedling is dipped in the dispersion for about 30 seconds. After air dried, the seedling is kept in a room at 25° C. 6 days after the dip treatment, the numbers of the dead and alive insects are counted. The corrected mortality rate is calculated according to the following formula and the insecticidal activity is evaluated according to the following criteria.

Spodoptera litura = test: Insecticidal test on Spodoptera litura (Example 14); format: in vivo; conditions: foliar, 192 h, 500 ppm, cabbage leaf dip, 2nd-instar larvae, 8 days after inoculation, read-out: activity level (corrected mortality rate)
Protocol: The compounds of formula (I), (Ia) and/or (Ib) of the present invention or salts thereof are separately dispersed in water and diluted to 500 ppm and 50 ppm. Cabbage leaves are dipped in the dispersion for about 30 seconds. After air dried, the leaves are placed in a plastic Petri dish with a diameter of 9 cm and inoculated with ten 2nd-instar larvae of Spodoptera litura, after which the dish is closed and then allowed to stand in a room at 25° C. 8 days after the inoculation, the numbers of the dead and alive insects are counted. The corrected mortality rate is calculated according to the following formula and the insecticidal activity is evaluated according to the following criteria.
[formula] [formula] • A: the corrected mortality rate is 100% • B: the corrected mortality rate is 90 to 99% • C: the corrected mortality rate is 80 to 89% • D: the corrected mortality rate is 50 to 79%

adult C. felis fleas [3] = test: Ingestion activity against adult Ctenocephalides felis, membrane feeding, alternative method (Examples 7 and 13); conditions: Ctenocephalides felis
Protocol: Selected compounds of formula (I), (Ia) and (Ib) and compound “125” of WO 2021/033141 dissolved in 100% DMSO are diluted in bovine blood with sodium heparin anti-coagulant. The resulting formulation is offered via an artificial membrane feeding system to approximately 15 adult C. felis fleas previously dispensed into 24-well plates. The plates are then incubated in a double-chambered device. Visual evaluation for mortality is performed at 48 hours post-treatment. Compound efficacy at a given dose is expressed as percentage mortality and determined by normalization to positive and negative controls. A dose response series is implemented to determine EC50 values.
Compounds of formulae (I), (Ia) and/or (Ib) dissolved in 100% DMSO are diluted in bovine blood with sodium heparin anti-coagulant. The resulting formulation is offered via an artificial membrane feeding system to approximately 15 adult C. felis fleas previously dispensed into 24-well plates. The plates are then incubated in a double-chambered device. Visual evaluation for mortality is performed at 48 hours post-treatment. Compound efficacy at a given dose is expressed as percentage mortality and determined by normalization to positive and negative controls. A dose response series is implemented to determine EC50 values.

Myzus persicae = test: Insecticidal test on Myzus persicae (Example 17); format: in vivo; conditions: 144 h, 500 ppm, foliar application on Chinese cabbage, 6 days after application, read-out: control efficacy level (control rate)
Text: The compounds of formula (I), (Ia) and/or (Ib) of the present invention or salts thereof are separately dispersed in water and diluted to 500 ppm and 50 ppm. Chinese cabbage plants are planted in plastic pots (diameter: 8 cm, height: 8 cm). Aphids (Myzus persicae) are propagated on the plants and then the number of surviving aphids is counted. The dispersion is applied to the foliage of the potted plants. After the plants are air dried, these are kept in a greenhouse. 6 days after the application, the number of the alive insects is counted on the plants. The control rate is calculated according to the following formula and the control efficacy is evaluated according to the following criteria. [formula] • Ta: the number of alive insects before the foliar application in a treated plot • T: the number of alive insects after the foliar application in a treated plot • Ca: the number of alive insects before the foliar application in an untreated plot • C: the number of alive insects after the foliar application in an untreated plot • A: the control rate is 100% • B: the control rate is 90 to 99% • C: the control rate is 80 to 89% • D: the control rate is 50 to 79%

A. aegypti L1 larvae = test: Activity against larvae of Aedes aegypti (Example 3); conditions: 48 h at 27° C., read-out: EC50 (percentage of mortality, larvae)
Protocol: Eight A. aegypti L1 larvae in a total volume of 64 μL water are added to 384-well microplates containing compounds of formulae (I), (Ia) and/or (Ib) formulated in 100% DMSO. The plates are incubated for 48 h at 27° C. Individual well images are acquired and analyzed using a pipeline to quantitatively assess the amount of larvae biomass accumulating at the bottom of the well. The efficacy of a compound at a given dose is expressed as “percentage of mortality” and determined by comparison to average biomass descriptors of positive and negative control wells containing 1.0 μM Fipronil or DMSO only, respectively. Dose response assay are conducted to determine an EC50 value.

[4] = test system: adult Ctenocephalides felis fleas; test: Contact activity against adult Ctenocephalides felis (Example 4); conditions: adult C. felis, coated pipe cleaner in vial, 72 hours post-treatment, read-out: EC50 (contact activity, percentage mortality)
Protocol: Compounds of formulae (I), (Ia) and/or (Ib) dissolved in 100% DMSO are diluted in acetone to a desired concentration. The resulting formulation is used to coat the fibers of a 0.5-inch-long piece of pipe cleaner placed in a glass scintillation vial. The vial is capped with a rubber gasket and filter paper insert. After the acetone has evaporated, ten adult Ctenocephalides felis fleas are added to each vial. The vials are then incubated at 22° C., 80% relative humidity, and 12 hours of light/12 hours of dark until a visual evaluation for mortality is performed at 72 hours post-treatment. Compound efficacy at a given dose is expressed as percentage mortality and adjusted to remove background mortality observed in control vials containing DMSO only. A dose response series of treated vials is implemented to determine EC50 values.

Laodelphax striatellus = test: Insecticidal test on Laodelphax striatellus (Example 16); format: in vivo; conditions: 192 h, 500 ppm, rice seedling dip, 3rd-instar nymphs, 8 days after inoculation, read-out: activity level (corrected mortality rate)
Protocol: The compounds of formula (I), (Ia) and/or (Ib) of the present invention or salts thereof are separately dispersed in water and diluted to 500 ppm and 50 ppm. Rice plant seedlings are dipped in the dispersion for about 30 seconds. After air dried, the seedlings are put into a separate glass test tube and inoculated with ten 3rd-instar nymphs of Laodelphax striatellus and then the glass test tube is kept in a room at 25° C. 8 days after the inoculation, the numbers of the dead and alive insects are counted. The corrected mortality rate is calculated according to the following formula and the insecticidal activity is evaluated according to the following criteria.

[5] = adult C. felis, bovine blood with sodium heparin, membrane feeding, 48 hours post-treatment, read-out: EC50 (ingestion activity, percentage mortality, alternative method)
[6] = alternative method according to Example 7, mortality at 48 hours post-treatment, read-out: C. felis membrane feeding (ingestion/blood feeding) activity EC50

| EC50 (adult C. felis fleas [2]) | SMILES | EC50 [1] | mortality at 500 ppm (Plutella xylostella) | mortality at 500 ppm (Spodoptera litura) | EC50 (adult C. felis fleas [3]; [5]) | EC50 (adult C. felis fleas [3]; [6]) | pest or weed control at 500 ppm (Myzus persicae) | EC50 (A. aegypti L1 larvae) | EC50 [4] | mortality at 500 ppm (Laodelphax striatellus) |
| --- | --- | --- | --- | --- | --- | --- | --- | --- | --- | --- |
| < 1 µM | CCS(=N)(=O)c1cc(-c2ccc(C3(F)CC3)cc2)cnc1-c1nc2cc(C(F)(F)C(F)(F)F)nnc2n1C (centres unmarked) [Compound 14] | 10 to 100 µM | 100% | 100% | < 1 µM | 0.195 µM | 100% | < 0.04 µM | < 10 µM | 100% |
| < 1 µM | CCS(=N)(=O)c1cc(-c2ccc(C3CC3)cc2)cnc1-c1nc2cc(C(F)(F)C(F)(F)F)cnc2n1C (centres unmarked) [Compound 11] | 10 to 100 µM | 100% | 100% | < 1 µM | 0.816 µM | 100% | < 0.04 µM | < 10 µM | 100% |
